Experiments:
cochlear blood flow = tested on: cochlear blood flow; set-up: method as in PMID 25014609; conditions: guinea pig model ref 29; cited from earlier work
[1] = Plasma pharmacokinetics of betahistine and 2-PAA after oral dosing in UVN cats (LC-MS/MS, non-compartmental analysis); type: in vivo, cat; conditions: days 1 and 21
Description: The experiments were performed on nine adult male UVN cats randomly allocated into three groups of cats. Three groups of three adult male cats received 0.2 mg/kg betahistine (N = 3: cats 1–3), 2 mg/kg betahistine (N = 3: cats 4–6), or 0.2 mg/kg betahistine plus 1 mg/kg selegiline (N = 3: cats 7–9). […] The samples were frozen at −80°C until analysis. Pharmacokinetic parameters of betahistine and its major metabolite 2-PAA were calculated by applying non-compartmental analysis.
Betahistine and its internal standard, betahistine-d3, were extracted by liquid/liquid extraction from plasma under alkaline conditions toward 1-butanol/isooctane, followed by a second liquid/liquid extraction step of acidic 1-butanol/isooctane toward water. Betahistine concentration in plasma was analyzed using a validated LC-MS/MS method. In brief, an API 4000 (Applied Biosystems) mass spectrometer coupled with a Symbiosis HPLC system (Sparks, Emmen, The Netherlands) was employed to analyze betahistine. Extracts (100 μl) were injected into a XTerra RP18 150 ^* 4.6 mm, 3.5 μm column (Waters, Etten-Leur, The Netherlands) and separated at 30°C under isocratic conditions using an aqueous metanol solution containing 0.5 mM ammonium formate as mobile phase. Betahistine was quantified by a tandem mass spectrometer in positive MRM. Parent daughter transition was followed for betahistine (m/z 137 > 94). Betahistine-d3 dihydrochloride was used as internal standard. Pharmacokinetic parameters of betahistine were calculated by applying non-compartmental analysis using the validated PK software WinNonLin, version 5.23 (Pharsight Corporation, Mountain View, CA, USA).
Cmax and tmax were derived directly from the plasma concentration-time curves. Linear trapezoidal rule was used to calculate AUC0-t during the part of the curve with increasing plasma concentrations. For the descending part of the curve, the log-linear trapezoidal rule was used. Calculation of the elimination half-life (t1/2) was evaluated as ln 2/kel, with kel as the slope of the terminal phase of the plasma concentration-time curve.

Structure (SMILES): O=C(O)Cc1ccccn1 [2-PAA, 2-pyridylacetic acid]
- Increase in cochlear blood flow (cochlear blood flow): not
- Effect of selegiline co-administration on 2-PAA Cmax-values [1]: strongly reduced

Structure (SMILES): NCCc1ccccn1 [aminoethylpyridine]
- Increase in cochlear blood flow (cochlear blood flow): observed

Structure (SMILES): OCCc1ccccn1 [hydroxyethylpyridine]
- Increase in cochlear blood flow (cochlear blood flow): observed

Reference: PMC6005348, “Betahistine Treatment in a Cat Model of Vestibular Pathology: Pharmacokinetic and Pharmacodynamic Approaches” (Frontiers in Neurology, 2018)
